Results from patent US9434711B2 (Janssen Pharmaceutica, NV, priority 2007, dated 2016).
Like-named read-outs stand apart in the source and are kept apart here.

Biological target: canine TRPM8 (Canis lupus familiaris, UniProt Q1A7N1)
Test: In Vitro Canine TRPM8 Functional Assay (Ca2+ fluorescence, icilin activation)
Format: cell-based
Conditions: for IC50: read-out: IC50; for inhibition at 0.2 µM: read-out: % Inh @ 0.2; for inhibition at 0.5 µM: compound at 0.5 μM, read-out: % Inh @ 0.5
How it was run: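 Canine TRPM8 stably expressed in HEK293; compound added 5 min before icilin challenge (~80% max response), with fluorescent Ca2+ signal tracked throughout.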

[1] = HEK293 cells stably expressing canine TRPM8, icilin activation, eight-point dose-response
[2] = compound at 0.2 μM, canine TRPM8, icilin activation
[3] = canine TRPM8, icilin activation
[4] = 0.2 μM compound, HEK293 cells stably expressing canine TRPM8, icilin activation
[5] = HEK293 cells stably expressing canine TRPM8, icilin activation, average of two or more determinations

canine TRPM8, sequence (Q1A7N1 1-1104): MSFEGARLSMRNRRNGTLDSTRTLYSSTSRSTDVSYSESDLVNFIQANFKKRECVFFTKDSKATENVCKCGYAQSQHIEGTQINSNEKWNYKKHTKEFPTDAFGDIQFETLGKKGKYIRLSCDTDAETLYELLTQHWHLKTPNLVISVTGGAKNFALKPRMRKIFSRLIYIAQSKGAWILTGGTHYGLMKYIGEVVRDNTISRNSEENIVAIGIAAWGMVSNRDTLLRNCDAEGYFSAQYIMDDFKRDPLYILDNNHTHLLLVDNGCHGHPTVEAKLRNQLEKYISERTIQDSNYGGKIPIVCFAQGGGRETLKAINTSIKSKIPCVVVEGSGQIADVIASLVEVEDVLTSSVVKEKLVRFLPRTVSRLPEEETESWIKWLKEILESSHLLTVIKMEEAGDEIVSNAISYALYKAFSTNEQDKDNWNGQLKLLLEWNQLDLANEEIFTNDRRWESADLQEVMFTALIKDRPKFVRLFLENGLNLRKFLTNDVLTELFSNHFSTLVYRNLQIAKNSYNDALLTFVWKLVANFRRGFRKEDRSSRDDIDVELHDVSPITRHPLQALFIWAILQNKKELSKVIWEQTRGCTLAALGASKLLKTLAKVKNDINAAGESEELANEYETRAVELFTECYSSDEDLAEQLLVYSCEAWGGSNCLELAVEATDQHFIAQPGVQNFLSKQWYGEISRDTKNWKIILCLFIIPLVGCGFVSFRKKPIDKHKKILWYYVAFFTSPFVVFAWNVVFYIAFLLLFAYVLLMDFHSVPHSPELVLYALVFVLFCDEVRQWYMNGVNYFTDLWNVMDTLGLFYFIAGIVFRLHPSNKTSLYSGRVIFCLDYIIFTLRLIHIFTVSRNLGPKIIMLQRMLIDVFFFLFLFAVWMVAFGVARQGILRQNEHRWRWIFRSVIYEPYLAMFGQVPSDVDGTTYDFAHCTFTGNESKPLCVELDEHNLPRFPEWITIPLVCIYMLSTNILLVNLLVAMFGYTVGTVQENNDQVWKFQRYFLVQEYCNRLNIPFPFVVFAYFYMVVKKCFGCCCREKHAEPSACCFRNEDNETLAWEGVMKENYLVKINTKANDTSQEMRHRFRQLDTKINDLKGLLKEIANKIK

| IC50 [1] [nM] | inhibition at 0.2 µM [2] [%] | SMILES | other results |
| --- | --- | --- | --- |
| 7.8 | 101 | COc1cc(NS(C)(=O)=O)c(Cl)cc1S(=O)(=O)N(Cc1ccc(F)c(C(F)(F)F)c1)c1sc2ccccc2c1Cl [Compound 766, 5-Chloro-N-(3-chloro-benzo[b]thiophen-2-yl)-N-(4-fluoro-3-trifluoromethyl-benzyl)-4-methanesulfonylamino-2-methoxy-benzenesulfonamide] |  |
| 6 | 103 | Nc1ccc(S(=O)(=O)N(Cc2ccc(F)c(C(F)(F)F)c2)c2sc3ccccc3c2Br)cc1Br [Compound 651, 4-Amino-3-bromo-N-(3-bromo-benzo[b]thiophen-2-yl)-N-(4-fluoro-3-trifluoromethyl-benzyl)-benzenesulfonamide] |  |
|  | 66 | Cc1c(N(CCC2CC2)S(=O)(=O)c2ccc(N3CCNCC3)cc2)sc2ccccc12 [Compound 742, N-(3-Methyl-benzo[b]thiophen-2-yl)-N-(cyclopropyl-ethyl)-4-(piperazin-1-yl)-benzenesulfonamide] |  |
| 24.6 | 101 | CS(=O)(=O)Nc1ccc(S(=O)(=O)N(CCC(F)(F)F)c2sc3ccccc3c2Br)cc1 [Compound 677, N-(3-Bromo-benzo[b]thiophen-2-yl)-N-(3,3,3-trifluoro-propyl)-4-methanesulfonylamino-benzenesulfonamide] |  |
| 21 | 97 | Cc1nn(C)c(C)c1S(=O)(=O)N(Cc1ccc(F)c(C(F)(F)F)c1)c1sc2ccccc2c1C [Compound 74, N-(4-Fluoro-3-trifluoromethyl-benzyl)-N-(3-methyl-benzo[b]thiophen-2-yl)-1,3,5-trimethyl-1H-pyrazole-4-sulfonamide] |  |
| 7.4 | 101 | O=S(=O)(c1ccc(-c2nnn[nH]2)cc1)N(CCC1CC1)c1sc2ccccc2c1Cl [Compound 635, N-(3-Chloro-benzo[b]thiophen-2-yl)-N-(2-cyclopropyl-ethyl)-4-(1H-tetrazol-5-yl)-benzenesulfonamide] |  |
| 79 |  | COc1cccc(CN(c2cc3ccccc3s2)S(=O)(=O)c2ccccc2)c1 [Compound 48, N-(Benzo[b]thiophen-2-yl)-N-(3-methoxy-benzyl)-benzenesulfonamide] | inhibition at 0.5 µM [3]: 98% |
| 29.4 | 101 | COC(=O)CCS(=O)(=O)N(Cc1ccc(OC(F)(F)F)cc1)c1sc2ccccc2c1C [Compound 794, N-(3-Methyl-benzo[b]thiophen-2-yl)-N-(4-trifluoromethoxy-benzyl)-2-carbomethoxy-ethanesulfonamide] |  |
|  |  | O=S(=O)(c1cc(Br)ccc1Br)N(Cc1ccc(F)c(F)c1)c1sc2ccccc2c1CO [Compound 834, 2,5-Dibromo-N-(3,4-difluoro-benzyl)-N-(3-hydroxymethyl-benzo[b]thiophen-2-yl)-benzenesulfonamide] | inhibition at 0.2 µM [4]: 87%; IC50 [5]: 123 nM |
| 29 | 101 | CCCCN(c1sc2cc(F)ccc2c1C)S(=O)(=O)c1ccc(C(=O)O)cc1 [Compound 450, N-(6-Fluoro-3-methyl-benzo[b]thiophen-2-yl)-N-(butyl)-4-carboxy-benzenesulfonamide] |  |
| 40 | 79 | COC(=O)CS(=O)(=O)N(Cc1ccc(OC(F)(F)F)cc1)c1sc2ccccc2c1C [Compound 761, N-(3-Methyl-benzo[b]thiophen-2-yl)-N-(4-trifluoromethoxy-benzyl)-carbomethoxy-methanesulfonamide] |  |
| 9 | 101 | CS(=O)(=O)Nc1ccc(S(=O)(=O)N(CCC2CC2)c2sc3ccccc3c2Cl)cc1 [Compound 716, N-(3-Chloro-benzo[b]thiophen-2-yl)-N-(2-cyclopropyl-ethyl)-4-methanesulfonylamino-benzenesulfonamide] |  |
| 25 | 99 | O=C(O)c1ccc(S(=O)(=O)N(CC2CC2)c2sc3ccccc3c2Cl)cc1 [Compound 478, N-(3-Chloro-benzo[b]thiophen-2-yl)-N-(cyclopropylmethyl)-4-carboxy-benzenesulfonamide] |  |
|  |  | Cc1c(N(CCCF)S(=O)(=O)c2ccc(C(=O)O)cc2)sc2ccccc12 [Compound 824, N-(3-Fluoropropyl)-N-(3-methyl-benzo[b]thiophen-2-yl)-4-carboxy-benzenesulfonamide] | inhibition at 0.2 µM [4]: 98%; IC50 [5]: 38 nM |
|  |  | O=S1NC(c2ccc(S(=O)(=O)N(CCC(F)(F)F)c3cc4ccccc4s3)cc2)=NO1 (stereo not drawn) [Compound 596, N-(Benzo[b]thiophen-2-yl)-N-(3,3,3-trifluoro-propyl)-4-(3H-[1,2,3,5]oxathiadiazole-2-oxide)-benzenesulfonamide] | % Inh @ 0.2 (μM) [2]: 17% |
| 15 |  | Cc1c(N(Cc2ccc(OC(F)(F)F)cc2)S(=O)(=O)c2cccc3cccnc23)sc2ccccc12 [Compound 21, N-(3-Methyl-benzo[b]thiophen-2-yl)-N-(4-trifluoromethoxy-benzyl)-quinoline-8-sulfonamide] | inhibition at 0.5 µM [3]: 98% |
|  |  | Cc1c(N(Cc2ccc(OC(F)(F)F)cc2)S(=O)(=O)c2cnccc2-c2noc(=O)[nH]2)sc2ccccc12 [Compound 808, N-(3-Methyl-benzo[b]thiophen-2-yl)-N-(4-trifluoromethoxy-benzyl)-4-(5-oxo-4,5-dihydro-[1,2,4]oxadiazol-3-yl)-pyrid-3-ylsulfonamide] | IC50 [5]: 0.7 nM |
| 13.4 |  | O=S(=O)(c1ccccc1)N(Cc1ccc(Cl)cc1)c1sc2ccccc2c1Br [Compound 159, N-(3-Bromo-benzo[b]thiophen-2-yl)-N-(4-chloro-benzyl)-benzenesulfonamide] | inhibition at 0.5 µM [3]: 98% |
| 48 |  | O=S(=O)(c1cccc(F)c1)N(Cc1ccc(F)c(F)c1)c1cc2ccccc2s1 [Compound 131, N-(Benzo[b]thiophen-2-yl)-N-(3,4-difluoro-benzyl)-3-fluoro-benzenesulfonamide] | inhibition at 0.5 µM [3]: 95% |
| 229 |  | Cc1c(N(Cc2cccc3cccnc23)S(=O)(=O)c2cn(C)cn2)sc2ccccc12 [Compound 10, N-(3-Methyl-benzo[b]thiophen-2-yl)-N-(quinolin-8-ylmethyl)-1-methyl-1H-imidazole-4-sulfonamide] | inhibition at 0.5 µM [3]: 89% |
| 108 |  | O=S(=O)(c1ccccc1)N(Cc1cccc(OC(F)(F)F)c1)c1cc2ccccc2s1 [Compound 57, N-(Benzo[b]thiophen-2-yl)-N-(3-trifluoromethoxy-benzyl)-benzenesulfonamide] | inhibition at 0.5 µM [3]: 100% |

| SMILES | IC50 [1] [nM] | inhibition at 0.2 µM [2] [%] | other results |
| --- | --- | --- | --- |
| O=S1NC(c2ccc(S(=O)(=O)N(CCCCC(F)(F)F)c3sc4ccccc4c3Br)cc2)=NO1 (stereo not drawn) [Compound 581, N-(3-Bromo-benzo[b]thiophen-2-yl)-N-(5,5,5-trifluoro-pentyl)-4-(3H-[1,2,3,5]oxathiadiazole-2-oxide)-benzenesulfonamide] | 25.1 |  | % Inh @ 0.2 (μM) [2]: 100% |
| CCCCN(c1sc2ccccc2c1C)S(=O)(=O)c1ccc(C2=NOS(=O)N2)cc1 (stereo not drawn) [Compound 540, N-(3-Methyl-benzo[b]thiophen-2-yl)-N-(butyl)-4-(3H-[1,2,3,5]oxathiadiazole-2-oxide)-benzenesulfonamide] | 12.2 |  | % Inh @ 0.2 (μM) [2]: 104.6% |
| Cc1c(N(CCC(F)(F)F)S(=O)(=O)c2ccc(C3=NOS(=O)N3)cc2)sc2ccccc12 (stereo not drawn) [Compound 598, N-(3-Methyl-benzo[b]thiophen-2-yl)-N-(3,3,3-trifluoro-propyl)-4-(3H-[1,2,3,5]oxathiadiazole-2-oxide)-benzenesulfonamide] | 30.7 |  | % Inh @ 0.2 (μM) [2]: 101% |
